From US7235577B1 (priority 2000, dated 2007)
Read-outs that look alike come from different tables or passages of the source.

Target: human IKCa1 channel (Homo sapiens, UniProt O15554)
Experiment: cell-based
Details: for IKCa1 inhibition compared with clotrimazole: refers to TABLE 8
Procedure: COS-7 cells, maintained in Dulbecco's modified Eagle's medium (DMEM) containing 10% heat-inactivated fetal calf serum, 4 mM L-glutamine and 1 mM Na^+ pyruvate, were transiently transfected with hlKCa1.
Electrophysiological experiments were carried out in the whole-cell configuration of the patch-clamp technique using an EPC-9 amplifier (HEKA Elektronik, Lambrecht Germany) interfaced to a computer running acquisition and analysis software (Pulse and Pulsfit; HEKA Elektronik). Pipettes were pulled from soft glass capillaries, coated with Sylgard (Dow-Corning, Midland, Mich.), and fire polished to resistances of 2.0–4.5 MΩ measured in the bath. COS-7 cells were trypsinized and plated on glass coverslips 3 h before measurement. […] To prevent activation of the native chloride channels in COS-7 cells an aspartate Ringer solution was used as an external solution (160 mM Na^+ aspartate, 4.5 mM KCl, 2 mM CaCl2, 1 mM MgCl2, 5 mM HEPES, adjusted to pH 7.4 with NaOH, with an osmolarity of 290–310 mosM). 200 ms voltage ramps from −120 mV to 40 mV every 10 s were used. The holding potential in all experiments was −80 mV. Series resistance compensation was not employed. The reduction of slope conductance at −80 mV was used to determine the Kd-value by fitting the values to the Hill equation with a Hill coefficient of unity.

[1] = hIKCa1 in COS-7 cells, reduction of slope conductance at −80 mV, 1 μM free Ca++ in pipette
[2] = read-out: Kd for block of IKCa1, hIKCa1 in COS-7 cells, reduction of slope conductance at −80 mV, 1 μM free Ca++ in pipette

human IKCa1 channel, sequence (O15554 whole entry): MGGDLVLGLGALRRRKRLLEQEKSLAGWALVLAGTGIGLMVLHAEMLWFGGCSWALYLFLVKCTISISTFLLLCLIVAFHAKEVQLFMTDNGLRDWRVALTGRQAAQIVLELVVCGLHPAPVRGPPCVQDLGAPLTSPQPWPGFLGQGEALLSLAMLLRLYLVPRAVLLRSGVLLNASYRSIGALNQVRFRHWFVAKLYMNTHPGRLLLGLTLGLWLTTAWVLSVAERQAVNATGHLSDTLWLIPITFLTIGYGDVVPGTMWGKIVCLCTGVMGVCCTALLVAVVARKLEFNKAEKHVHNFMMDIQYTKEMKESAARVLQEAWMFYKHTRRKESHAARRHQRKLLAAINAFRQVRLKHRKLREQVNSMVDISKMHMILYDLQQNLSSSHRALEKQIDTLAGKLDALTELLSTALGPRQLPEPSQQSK

| Compound | Kd [nM] | also measured |
| --- | --- | --- |
| FC(F)(F)c1ccc(C(c2ccccc2)(c2ccccc2)n2cccn2)cc1 [Compound T60, 1-{Diphenyl[4-(trifluoromethyl)-phenyl]methyl}-1H-pyrazole] | 1500 |  |
| c1ccc(C(NCCN(CCNC(c2ccccc2)(c2ccccc2)c2ccccc2)CCNC(c2ccccc2)(c2ccccc2)c2ccccc2)(c2ccccc2)c2ccccc2)cc1 [Compound T20] |  | Kd for block of IKCa1 [1]: No effect at 1 μM |
| COc1ccc(C(C#N)(c2ccccc2)c2ccc(OC)cc2)cc1 [Compound T17] |  | Kd [2]: 35000 nM |
| Fc1ccccc1C(c1ccccc1)(c1ccccc1)n1cccn1 [Compound T46, 1-[(2-Fluorophenyl)diphenylmethyl]-1H-pyrazole] | 40 | IKCa1 inhibition compared with clotrimazole: more potent inhibitors of IKCa1 channels than clotrimazole |
| N#CC(c1ccccc1)(c1ccccc1)c1ccc(Cl)cc1 [Compound T26, 2-(4-Chlorophenyl)-2,2-diphenylacetonitrile] | 750 |  |
| NC(c1ccccc1)(c1ccccc1)c1ccccc1Cl [Compound T41, (2-chlorophenyl)diphenylmethyl amine] |  | Kd [2]: 5000 nM |
| OC(c1ccccc1)(c1cccs1)c1ccccc1Cl (stereo not drawn) [Compound T43, (2-Chlorophenyl)(2-thienyl)phenyl methanol] | 750 |  |
| Cc1cc(C)n(C(c2ccccc2)(c2ccccc2)c2ccccc2Cl)n1 [Compound T62, 1-[(2-Chlorophenyl)diphenylmethyl]-3,5-dimethyl-1H-pyrazole] | 12000 |  |
| C[n+]1ccc(C(O)(c2ccccc2)c2ccccc2)cc1 [Compound T8] |  | Kd for block of IKCa1 [1]: No effect at 10 μM |
| Clc1ccccc1C(Nc1ncccn1)(c1ccccc1)c1ccccc1 [Compound T68, N-[(2-Chlorophenyl)diphenylmethyl]-N-(2-pyrimidyl)amine] | 900 |  |
| NC(c1ccccc1)(c1ccccc1)c1ccccc1C(F)(F)F [Compound T82, (2-Trifluoromethylphenyl)-diphenylmethyl amine] |  | Kd [2]: 2500 nM |
| c1ccc(C(c2ccccc2)(c2cccs2)n2ccnc2)cc1 [Compound T37, 1-[Diphenyl(2-thienyl)methyl]-1H-imidazole] | 1000 |  |
| FC(F)(F)c1ccn(C(c2ccccc2)(c2ccccc2)c2ccccc2Cl)n1 [Compound T65, 1-[(2-Chlorophenyl)diphenylmethyl]-3-(trifluorormethyl)-1H-pyrazole] | 2000 |  |
| Clc1ccc(C(c2ccccc2)(c2ccccc2)n2cccn2)cc1 [Compound T13, 1[(4-Chlorophenyl)diphenylmethyl]-1H-pyrazole] | 90 |  |
| COc1ccc(C(O)(c2ccc(OC)cc2)c2ccc(OC)cc2)cc1 [Compound T16, Tris-(4-methoxyphenyl) methanol] | 10000 |  |
| c1ccc(C(c2ccccc2)(c2cccs2)n2cccn2)cc1 [Compound T38, 1-[Diphenyl(2-thienyl)methyl]-1H-pyrazole] | 1100 |  |
| Clc1ccccc1C(Nc1ccccn1)(c1ccccc1)c1ccccc1 [Compound T69, N-[(2-Chlorophenyl)diphenylmethyl]-N-(2-pyridyl)amine] | 28000 |  |
| OC(c1ccccc1)(c1ccc(F)cc1)c1cccs1 (stereo not drawn) [Compound T14, (4-Fluorophenyl)(2-thienyl)phenyl methanol] | 800 |  |
| COc1ccc(C(O)(c2ccccc2)c2ccc(OC)cc2)cc1 [Compound T15, Bis-(4-methoxyphenyl)phenyl methanol] | 10000 |  |
| OC(c1ccccc1)(c1ccccc1)c1ccccc1C(F)(F)F [Compound T54, Diphenyl(2-trifluoromethylphenyl) methanol] | 700 |  |

| Compound | Kd [nM] | also measured |
| --- | --- | --- |
| Fc1ccc(C(c2ccccc2)(c2ccccc2)n2cccn2)cc1 [Compound T28, 1-[(4-Fluorophenyl)diphenylmethyl]-1H-pyrazole] | 200 |  |
| FC(F)(F)c1ccccc1C(Nc1nccs1)(c1ccccc1)c1ccccc1 [Compound T72, N-Diphenyl[2-(trifluoromethyl)phenyl]-methyl-N-(1,3-thiazol-2yl)amine] | 25000 |  |
| Cc1csc(NC(c2ccccc2)(c2ccccc2)c2ccccc2Cl)n1 [Compound T79, N-[(2-Chlorophenyl)diphenylmethyl]-N-(4-methyl-1,3-thiazol-2yl)amine] | 8000 |  |
| NC(c1ccccc1)(c1ccccc1)c1ccc(F)cc1 [Compound T42, (4-Fluorophenyl)diphenylmethyl amine] |  | Kd [2]: 5000 nM |
| CCOC(=O)C(C(=O)OCC)C(c1ccccc1)(c1ccccc1)c1ccccc1Cl [Compound T77] |  | Kd [2]: 800 nM |
| Clc1ccc(C(Nc2nccs2)(c2ccccc2)c2ccccc2)cc1 [Compound T64, N-[(4-Chlorophenyl)diphenylmethyl]-N-(1,3-thiazol-2yl)amine] | 20000 |  |
| Fc1ccccc1C(Nc1nccs1)(c1ccccc1)c1ccccc1 [Compound T78, N-[(2-Fluorophenyl)diphenylmethyl]-N-(1,3-thiazol-2yl)amine] | 12000 |  |
| OC(c1ccccc1)(c1ccccc1)c1ccc(C(F)(F)F)cc1 [Compound T55, Diphenyl(4-trifluoromethylphenyl) methanol] | 820 |  |
| OC(c1ccccc1)(c1cccc(Cl)c1)c1cccc(Cl)c1 [Compound T5, Bis-(3-chlorophenyl)phenyl methanol] |  | Kd for block of IKCa1 [1]: No effect at 1 μM |
| c1ccc(C(c2ccccc2)(c2ccccc2)n2ccnc2)cc1 [Compound T86] |  | Kd [2]: 1500 nM |
| COc1ccc(C(c2ccc(OC)cc2)(c2ccc(OC)cc2)n2cccn2)cc1 [Compound T19, 1-[Tris(4-methoxyphenyl)methyl]-1H-pyrazole] |  | Kd for block of IKCa1 [1]: No effect at 1 μM |
| Clc1ccccc1C(c1ccccc1)(c1ccccc1)n1cnc2ccccc21 [Compound T85, 1-[(2-Chlorophenyl)diphenylmethyl]-1H-1,3-benzimidazole] |  | Kd for block of IKCa1 [1]: No effect at 1 μM |
| Clc1ccccc1C(c1ccccc1)(c1ccccc1)n1cnnn1 [Compound T84, 1-[(2-Chlorophenyl)diphenylmethyl]-1H-1,2,3,4-tetrazole] | 45 | IKCa1 inhibition compared with clotrimazole: more potent inhibitors of IKCa1 channels than clotrimazole |
| O=C1c2ccccc2C(=O)N1C(c1ccccc1)(c1ccccc1)c1ccccc1Cl [Compound T71, 2-[(2-Chlorophenyl)diphenylmethyl]-1H-isoindole-1,3(2H)-dione] |  | Kd for block of IKCa1 [1]: No effect at 10 μM |
| COc1ccc(C(C#N)(c2ccc(OC)cc2)c2ccc(OC)cc2)cc1 [Compound T18] |  | Kd [2]: 40000 nM |
| Cc1ccn(C(c2ccccc2)(c2ccccc2)c2ccccc2Cl)n1 [Compound T63, 1-[(2-Chlorophenyl)diphenylmethyl]-3-methyl-1H-pyrazole] | 1100 |  |
| NC(c1ccccc1)(c1ccccc1)c1ccccc1F [Compound T47, (2-Fluorophenyl)diphenylmethyl amine] |  | Kd [2]: 2000 nM |
| OC(c1ccccc1)(c1ccccc1)c1cccc(C(F)(F)F)c1 [Compound T56, Diphenyl(3-trifluoromethylphenyl) methanol] | 650 |  |
| C[n+]1ccn(C(c2ccccc2)(c2ccccc2)c2ccccc2Cl)c1 [Compound T30] |  | Kd [2]: 10000 nM |
| FC(F)(F)c1ccc(C(Nc2nccs2)(c2ccccc2)c2ccccc2)cc1 [Compound T61, N-Diphenyl[4-(trifluoromethyl)phenyl]-methyl-N-(1,3-thiazol-2-yl)amine] | 35000 |  |
